Data published in paper PMC10731632, “Is Smaller Better? Cu^2+/Cu^+ Coordination Chemistry and Copper-64 Radiochemical Investigation of a 1,4,7-Triazacyclononane-Based Sulfur-Rich Chelator” (Inorganic Chemistry, 2023).

What was measured:
[1] = design: method as in Bianchi et al. [30]; details: I = 0.1 M KNO3, T = 25 °C; ref Bianchi et al. [30]; cited from earlier work
[2] = Solubility in water observed during pKa measurements; type: physicochemical; details: basic pH, precipitate observed
Description: (§1) Subsequently, the acid–base properties of NO3S and TACN-n-Bu were appraised. This study is a prior fundamental step before the investigation of complexation equilibria, since the proton represents a competitor of the metal ion for the interaction with the donor sites having Brønsted and Lewis acid–base properties, such as the amines of the TACN scaffold. […] The ionic strength (I) was adjusted using 0.15 M NaNO3. […] Therefore, additional pKa measurements were performed in a 1:1 water/methanol mixture, where no precipitation was detected. The acidity constants of TACN-n-Bu were derived upon analysis of the pH-potentiometric titrations data and pH-dependent ^1H NMR spectra in water (Figure S9B). The acidity constant values of both ligands are gathered in Table 1 along with the values of the unsubstituted macrocycle (i.e., TACN) and the methyl-functionalized one (i.e., 1,4,7-trimethyl-1,4,7-triazacyclonane, TACN-Me) derived from the literature.[30]
Potentiometric titrations were conducted using an automated titrating system (Metrohm 765 Dosimat) equipped with a combined glass electrode (Hamilton pH 0–14) and a Metrohm 713 pH meter at T = 25 °C under a N2 atmosphere. NaNO3 (0.15 M) was used to fix the ionic strength. Stock solutions of NO3S and TACN-n-Bu were freshly prepared by dissolution of the synthesized compounds (∼10^–3 M). […]

[3] = Cyclic voltammetry of the copper complex of NO3S (Cu2+/Cu+ couple); Cu+ stability constant and pCu+; type: physicochemical
Description: To assess the ability of NO3S to stably bind Cu^+, cyclic voltammetry (CV) analysis was executed. The investigation was performed in aqueous solution at pH ranging from 3 to 12. The obtained cyclic voltammograms, reported in Figure 7, show a peak couple attributable to the quasi-reversible one-electron reduction–oxidation process of the Cu^2+/Cu^+ redox pair (Table S9). No variation of the voltammetric behavior after multiple reduction–oxidation cycles was observed either with time or with the scan rate (except for the increase in the current intensity, i). This outcome is extremely significant because it proves the ability of NO3S to stabilize both copper oxidation states throughout the investigated pH range on the time scale of the CV experiments.
As illustrated in Figure 7 and Table S9, a pH-dependent variation of the cyclic voltammograms was found. […]
Bulk electrolysis of the preformed Cu^2+-NO3S complexes was carried out in a two-compartment cell. […] The electrolysis was performed at a fixed potential equal to E = −0.35 V and monitored by linear scan voltammetry on a rotating disk electrode. […] No variations of the ^1H NMR spectra were detected after 2 days (tubes were stored under a normal atmosphere). […]

[4] = Acidity constants (pKa) of the free ligands by pH-potentiometric titration; type: physicochemical; details: T = 25 °C, I = 0.15 M NaNO3
Description: as §1
Potentiometric titrations were conducted using an automated titrating system (Metrohm 765 Dosimat) equipped with a combined glass electrode (Hamilton pH 0–14) and a Metrohm 713 pH meter at T = 25 °C under a N2 atmosphere. NaNO3 (0.15 M) was used to fix the ionic strength. Stock solutions of NO3S and TACN-n-Bu were freshly prepared by dissolution of the synthesized compounds (∼10^–3 M). To avoid carbonatation phenomena and facilitate the dissolution, prestandardized HNO3 (CH^+ = 4CL) was coadded to each ligand solution. The solubility of the ligands in water depends on pH: minimal values occur at pH > 12, where the noncharged, totally deprotonated form predominates. All of the titrations were conducted as previously described.[22]−[25] […] Each titration was performed independently, at least in quintuplicate.
(§2) The thermodynamic data were elaborated with the least-squares fitting program PITMAP as described in our previous works.[22]−[25] […]

[5] = Formation kinetics of Cu2+ complexes by UV-vis spectroscopy (time to reach equilibrium); type: physicochemical; details: ambient temperature
Description: The formation kinetics of the Cu^2+ complexes with NO3S and TACN-n-Bu was qualitatively appraised by UV–vis spectroscopy at ambient temperature and different pH values to explore the time necessary to reach equilibrium. The spectrum of NO3S and TACN-n-Bu as free ligands is also reported for comparison purposes in Figure S15.
The formation kinetics of Cu^2+ complexes with NO3S and TACN-n-Bu was evaluated at different pH values at room temperature using UV–vis spectroscopy as previously reported.[24],[25] Briefly, equimolar amounts of Cu^2+ and the proper ligands were mixed, and the corresponding UV–vis spectra were recorded over time. The final concentrations were CCu^2+ = CL = 1.0 × 10^–4 M. The pH was controlled using the following buffers: HCl 10^–2 M (pH = 2), acetic acid/acetate (pH = 4), and 2-[4-(2-hydroxyethyl)piperazin-1-yl]ethanesulfonic acid (HEPES) (pH = 7.1).

[6] = Acidity constants (pKa) of the free ligands by pH-dependent 1H NMR; type: physicochemical; details: water, T = 25 °C
Description: as §1
However, the chemical shift of all of the other signals manifests a noticeable pH dependence. The most pronounced variation is experienced by the NCH2 protons of the ring, possibly because the deprotonation processes led to a marked relaxation of the ring constraint caused by the H^+−H^+ repulsions. An analogous pH dependency of the chemical shifts is observed for TACN-n-Bu, even if in this case a slowed exchange between the differently protonated forms can be recognized from the enlargement of the signals around pH = pKa,2. The data were fitted, and the corresponding protonation constants (Table 1) were obtained.
Small additions (∼μL) of HNO3 and/or NaOH were used to adjust the pH. The latter was measured as for the potentiometric measurements. Under highly acidic conditions, the pH was computed from the HNO3 concentration (pH = −logCH^+). An excitation sculpting pulse scheme was used to suppress the water signal.[32]
as §2

[7] = Stability constants of Cu2+ complexes by UV-vis spectrophotometric batch titrations; pCu2+ calculation; type: physicochemical; details: for pCu^2+ (−log[Cu^2+]free): calculated at CL = 1 × 10^-5 M, CCu2+ = 1 × 10^-6 M, pH 7.4 from stability constants
Description: The stability constants (logβ) of the Cu^2+ complexes formed by NO3S and TACN-n-Bu were determined via UV–vis spectrophotometric titrations. Due to both the slow complexation kinetics observed at acidic pH (vide supra) and the high complex stability, batch titrations were conducted and heating was applied to speed up reaching the equilibrium condition.
The stability of the Cu^2+ complexes with TACN-n-Bu was assessed as well to investigate the role of the sulfanyl pendants in metal coordination. The UV–vis spectra recorded at different pH values are shown in Figure 3B, and the variation of the absorbance at λ = 295 nm is reported in Figure S16B. The pCu^2+ values were then computed (Figure 5): being defined as −log[Cu^2+]free, the higher the pCu^2+ value, the greater the stability of the considered metal–ligand complex.[23]−[25]
UV–vis pH-spectrophotometric titrations were carried out as previously reported by means of the out-of-cell method at T = 25 °C and I = 0.15 M NaNO3.[24],[25] Briefly, stock solutions of NO3S or TACN-n-Bu were mixed with Cu(NO3)2 in independent vials at a 1:1 metal-to-ligand ratio (CCu^2+ = CL = 1.0 × 10^–4 M). The pH was adjusted as described in the NMR experiments. The vials were sealed and heated to T = 60 °C in a thermostatic bath to ensure complete complexation and then cooled to ambient temperature. The absorption spectra were recorded, and equilibrium was considered to be reached when no variations in either the pH or the electronic spectra were detected over time.
The thermodynamic data were elaborated with the least-squares fitting program PITMAP as described in our previous works.[22]−[25] All equilibrium constants refer to the overall equilibrium pM^m+ + qH^+ + rL^l– ⇌ MpHqLr^pm+q–rl, where M = Cu^2+ and L = NO3S or TACN-n-Bu, respectively, and are defined as cumulative formation constants (logβpqr = [MpLqHr]/[M]^p[L]^q[H]^r).

[8] = design: method as in PMID 35807404; details: after 24 h; cited from earlier work
[9] = I = 0.15 M NaNO3, read-out: pKa, H2L^2+ ⇌ H^+ + HL^+
[10] = UV-vis spectrophotometric titrations, T = 25 °C, I = 0.15 M NaNO3

C1CNCCNCCN1 [TACN, 1,4,7-triazacyclononane]
pKa, H2L^2+ ⇌ H^+ + HL^+ [1]: 6.86
pKa, H3L^3+ ⇌ H^+ + H2L^2+ [1]: 2.1
pKa, HL^+ ⇌ H^+ + L [1]: 10.68

CSCCN1CCN(CCSC)CCN(CCSC)CC1 [NO3S]
Solubility in water of the completely deprotonated neutral form (L) [2]: sparingly soluble
pCu^+ ([3]; calculated at CL = 10^-5 M, CCu+ = 10^-6 M, pH = 7.4): 14.0
logβ, Cu^+ + L ⇌ [CuL]^+ ([3]; obtained from voltametric data, T = 25 °C, I = 0.15 M NaNO3): 18.36 ± 0.05
pKa ([4]; 1:1 water/methanol, pH potentiometry in 1:1 water/methanol, read-out: pKa, H2L^2+ ⇌ H^+ + HL^+): 2.33 ± 0.04
pKa ([4]; 1:1 water/methanol, pH potentiometry in 1:1 water/methanol, read-out: pKa, HL^+ ⇌ H^+ + L): 11.52 ± 0.01
Time to reach Cu2+ complexation equilibrium ([5]; pH = 1.0, equimolar metal-to-ligand 10^-4 M): ~14 h
Time to reach Cu2+ complexation equilibrium ([5]; pH = 4.0, equimolar metal-to-ligand 10^-4 M): ~0.167 h
Time to reach Cu2+ complexation equilibrium ([5]; pH = 7.1 (neutral), equimolar metal-to-ligand 10^-4 M): < 0.017 h
pKa [6, 9]: 2.7 ± 0.02
pKa ([6]; I = 0.15 M NaNO3, read-out: pKa, HL^+ ⇌ H^+ + L): 12.72 ± 0.08
logβ, Cu^2+ + L + H2O ⇌ [CuL(OH)]^+ + H^+ [7, 10]: 9.08 ± 0.03
logβ, Cu^2+ + L ⇌ [CuL]^2+ [7, 10]: 18.41 ± 0.05
pCu^2+ (−log[Cu^2+]free) [7]: 14.3
Increase in Cu2+ complex stability (pCu^2+) with respect to TACN-n-Bu ([7]; physiological pH): 6 orders of magnitude

CSCCN1CCN(CCSC)CCN(CCSC)CCN(CCSC)CC1 [DO4S, 1,4,7,10-tetrakis-[2-(methylsulfanyl)ethyl]-1,4,7,10-tetraazacyclododecane]
Percentage of intact [64Cu]Cu2+ complex in human serum [8]: 20%

O=C(O)CN1CCN(CC(=O)O)CCN(CC(=O)O)CC1 [NOTA, 1,4,7-triazacyclononane-1,4,7-triacetic acid, reference compound]
pCu^2+ (−log[Cu^2+]free) [7]: 18.2

CCCCN1CCN(CCCC)CCN(CCCC)CC1 [TACN-n-Bu, 1,4,7-tris-n-butyl-1,4,7-triazacyclononane]
pKa ([4]; water, pH potentiometry, read-out: pKa, H2L^2+ ⇌ H^+ + HL^+): 5 ± 0.05
Time to reach Cu2+ complexation equilibrium ([5]; neutral pH, equimolar metal-to-ligand 10^-4 M): 8 h
pKa [6, 9]: 5.04 ± 0.05
logβ, Cu^2+ + HL^+ ⇌ [CuHL]^3+ [7, 10]: 6.2 ± 0.1
logβ, Cu^2+ + HL^+ ⇌ [CuL]^2+ + H^+ [7, 10]: –0.04 ± 0.15

CN1CCN(C)CCN(C)CC1 [TACN-Me, 1,4,7-trimethyl-1,4,7-triazacyclonane]
pKa, H2L^2+ ⇌ H^+ + HL^+ [1]: 5.1
pKa, H3L^3+ ⇌ H^+ + H2L^2+ [1]: –0.4
pKa, HL^+ ⇌ H^+ + L [1]: 11.7
